Two compounds from article PMC5655693, “Conformational stabilization as a strategy to prevent nucleophosmin mislocalization in leukemia” (Scientific Reports, 2017) can be followed below.

A word on the Kd: it is the concentration at which binding is half-saturated. Read a high Kd as a looser complex.

For experiment [1], the target named is T1, Nucleophosmin (NPM) (Homo sapiens, UniProt P06748).
T1 construct: gene NPM1; full-length NPM (SPR); C-terminal domain residues 243–294 (DSF)
Briefly: SPR steady state ([…] model, S0.[…] ≈ KD); DSF ΔTm […] °C at […] with C-terminal domain. Type of experiment: binding.

The target of experiment [2] is T1, Nucleophosmin (NPM). Briefly: SPR steady state ([…] model, S0.[…] ≈ KD); DSF ΔTm […] °C at […] with C-terminal domain; Trp fluorescence unfolding. The class given is binding.

SMILES strings stand for the structures.

T1 sequence (P06748 whole entry, the tested form may be a part): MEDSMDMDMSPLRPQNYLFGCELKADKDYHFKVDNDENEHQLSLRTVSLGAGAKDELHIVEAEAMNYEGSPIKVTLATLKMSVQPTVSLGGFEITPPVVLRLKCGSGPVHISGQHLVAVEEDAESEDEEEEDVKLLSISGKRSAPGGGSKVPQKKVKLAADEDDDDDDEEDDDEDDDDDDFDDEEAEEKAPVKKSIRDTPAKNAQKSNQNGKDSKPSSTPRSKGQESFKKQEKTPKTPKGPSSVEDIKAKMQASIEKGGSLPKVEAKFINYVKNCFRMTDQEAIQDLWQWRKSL

`Cc1ccc(-n2c(SCC(=O)Nc3ccc4c(c3)OCCO4)nc3ccccc3c2=O)cc1` [C3] gave a Kd on Nucleophosmin (NPM) [1] of 102 ± 23 µM.

`CC1=C(C(=O)Nc2ccc(Br)cn2)C(c2ccccn2)C2=C(CC(c3ccccc3)CC2=O)N1` (centres unmarked) [C1] had a dissociation constant Kd at Nucleophosmin (NPM) [2] of 68 ± 13 µM.
